Data reported in patent EP1131073B1, “USE OF STAUROSPORINE DERIVATIVES FOR TREATING OCULAR NEOVASCULAR DISEASES” (Novartis AG, priority 1998, dated 2000).

Columns and labels:
[1] = tested on: retinal neovascularization; test: Oxygen-induced ischemic retinopathy in mice, lectin-stained retinal sections with image analysis; type: in vivo, C57/BL6J mice; details: for clumps of neovascularization on the surface of the retina: compared to vehicle-treated control mice
Description: Ischemic retinopathy is produced in C57/BL6J mice by a method described by Smith et al., Oxygen-induced Retinopathy in the Mouse, Invest. Ophthalmol. Vis. Sci. 35, 101-111 (1994). Seven-day-old mice and their mothers are placed in an airtight incubator and exposed to an atmosphere of 75 ± 3% oxygen for 5 days. Incubator temperature is maintained at 23 ± 2°C, and oxygen is measured every 8 hours with an oxygen analyzer. After 5 days, the mice are removed from the incubator, placed in room air, and subjected to a drug treatment. […] Vehicle (1% DMSO) or vehicle containing various concentrations of the drug (volume = 10 µl per gram body weight) is placed in the stomach by gavage.
(§1) After 5 days of treatment, the mice are sacrificed, eyes are rapidly removed and frozen in optimum cutting temperature embedding compound (OCT; Miles Diagnostics, Elkhart, IN) or fixed in 10% phosphate-buffered formalin and embedded in paraffin. Adult C57BL6J mice are also treated by gavage with the drug or vehicle and after 5 days, they are sacrificed and their eyes are processed for frozen or paraffin sections.
Slides are incubated in methanol/H2O2 for 10 minutes at 4°C, washed with 0.05 M Tris-buffered saline, pH 7.6 (TBS), and incubated for 30 minutes in 10% normal porcine serum. Slides are incubated 2 hours at room temperature with biotinylated lectin and after rinsing with 0.05M TBS, they are incubated with avidin coupled to peroxidase (Vector Laboratories) for 45 minutes at room temperature. After being washed for 10 minutes with 0.05 M TBS, slides are incubated with diaminobenzidine to give a brown reaction product. Some slides are counterstained with hematoxyln and all were mounted with Cytoseal.
To perform quantitative assessments, 10 µm serial sections are cut through half of each eye and sections roughly 50-60 µm apart are stained with lectin, providing 13 sections per eye for analysis. Lectin-stained sections are examined with an Axioskop microscope (Zeiss, Thornwood, NY) and images are digitized using a 3 CCD color video camera (IK-TU40A, Toshiba, Tokyo, Japan) and a frame grabber. Image-Pro Plus software (Media Cybernetics, Silver Spring, MD) is used to delineate lectin-stained cells on the surface of the retina and their area is measured. The mean of the 13 measurements from each eye is used as a single experimental value.

[2] = tested on: endothelial cells of mature vessels; test: Effect on mature retinal vessels of adult mice, endothelial staining with image analysis; type: in vivo, Adult C57BL6J mice; details: 600 mg/kg by gavage once a day for 5 days
Description: as §1

[3] = tested on: retinal vascular development; test: Retinal vascular development in neonatal mice, fluorescein-dextran perfused retinal flat mounts; type: in vivo, newborn C57/BL6J mice; details: 100 mg/kg daily subcutaneous
Description: Litters of newborn C57/BL6J mice (neonatal mice) are divided into treatment and control groups which received daily subcutaneous injections of 100 mg/kg of the drug or vehicle, respectively. At 7 or 10 days of age, the mice are anesthetized with ether, and perfused with 1 ml of phosphate-buffered saline containing 50 mg/ml of fluorescein-labeled dextran (2x10^6 average mw, Sigma, St. Louis, MO) as described by Tobe et al., Evolution of Neovascularization in Mice with Overexpression of VEGF in Photoreceptors, Invest. Ophthalmol. Vis. Sci. 39, 180-188 (1998). The eyes are removed and fixed for 1 hour in 10% phosphate-buffered formalin. The cornea and lens are removed and the entire retina is carefully dissected from the eyecup. Radially cuts are made from the edge of the retina to the equator in all 4 quadrants, and the retina is flat-mounted in Aquamount with photoreceptors facing upward. The flat mounts are examined by fluorescence microscopy, and the images are digitized using a 3 CCD color video camera and a frame grabber. Image-Pro™ Plus is used to measure the distance from the center of the optic nerve to the leading front of developing retinal vessels in each quadrant and the mean is used as a single experimental value.

[4] = tested on: choroidal neovascularization; test: Laser-induced rupture of Bruch's membrane, choroidal neovascularization in mice; type: in vivo, C57BL/6J mice; details: 400 mg/kg/day orally by gavage
Description: C57BL/6J mice are treated in accordance with the Association for Research in Vision and Ophthalmology resolution for the treatment of animals. […] J Path, in press. Briefly, 4 to 5 week old male C57BL/6J mice are anesthetized with ketamine hydrochloride (100 mg/kg body weight) and the pupils are dilated with 1% tropicamide. Three bums of krypton laser photocoagulation (100 µm spot size, 0.1 seconds duration, 150 mW) are delivered to each retina using the slit lamp delivery system of a Coherent Model 920 Photocoagulator and a hand held cover slide as a contact lens. Bums are performed in the 9, 12, and 3 o'clock positions of the posterior pole of the retina. Production of a bubble at the time of laser, which indicates rupture of Bruch's membrane, is an important factor in obtaining CNV, so only mice in which a bubble is produced for all three bums are included. […] After 14 days, the mice are killed with an overdose of pentobarbital sodium, and their eyes are rapidly removed and frozen in optimal cutting temperature embedding compound (OCT). Frozen serial sections (10 µm) are cut through the entire extent of each burn and histochemically stained with biotinylated griffonia simplicifolia lectin B4 (Vector Laboratories, Burlingame, CA), which selectively binds to endothelial cells. Slides are incubated in methanol/H2O2 for 30 minutes at 4°C, washed with 0.05 M Tris-buffered saline, pH 7.4 (TBS), and incubated for 30 minutes in 10% normal swine serum. Slides are rinsed with 0.05M TBS and incubated 2 hours at 37°C with biotinylated lectin. After being rinsed with 0.05M TBS, slides are incubated with Streptavidin-phosphatase (Kirkegaard and Perry Laboratories, Cabin John, MD) for 30 minutes at room temperature. […]
To perform quantitative assessments, lectin-stained sections are examined with an Axioskop microscope (Zeiss, Thornwood, NY) and images are digitized using a 3 CCD color video camera (IK-TU40A, Toshiba, Tokyo, Japan) and a frame grabber. […]

[5] = 300 mg/kg twice a day by gavage

CO[C@@H]1[C@H](N(C)C(=O)c2ccccc2)C[C@H]2O[C@]1(C)n1c3ccccc3c3c4c(c5c6ccccc6n2c5c31)C(=O)NC4 [NBS, N-benzoyl-staurosporine]
endothelial cell staining on and in the retinas (image analysis) ([1]; 60 mg/kg once a day, compared to vehicle-treated mice): significantly less
endothelial staining within the retina ([1]; 60 mg/kg twice a day by gavage): some decrease
clumps of neovascularization on the surface of the retina ([1]; 60 mg/kg twice a day by gavage): less than clumps in the retina of the vehicle-treated control mice
endothelial staining within the retina [1, 5]: some decrease
clumps of neovascularization on the surface of the retina [1, 5]: less than clumps in the retina of the vehicle-treated control mice
endothelial cell staining in the inner nuclear layer and outer plexiform layer ([1]; 600 mg/kg once a day for 5 days): striking absence
endothelial cell staining on the surface and within the retina ([1]; 600 mg/kg once a day for 5 days by gavage, compared to vehicle-treated mice): dramatic decrease
endothelial cell staining within the retina ([1]; 600 mg/kg once a day for 5 days, compared to nonischemic mice): less than that of the nonischemic mice
endothelial cell staining on and in the retinas (image analysis) ([1]; 600 mg/kg once a day, compared to vehicle-treated mice): significantly less
toxicity to endothelial cells of mature vessels [2]: not toxic
total area of endothelial staining in the retina or the appearance of retinal vessels ([2]; compared to vehicle-treated mice): no difference
extension of retinal vessels ([3]; at 7 days of age): only extend slightly more than halfway to the periphery
extension of superficial capillary bed ([3]; at 10 days of age): has not yet reached the edge of the retina
integrated area of lectin staining per lesion ([4]; 14 days, vehicle alone 0.0695621 ± 0.0073960 mm^2, p=0.004): 0.009018 ± 0.001754 mm^2
appearance of overlying retinal vessels ([4]; two weeks after laser): appear normal
choroidal neovascularization at the site of each laser-induced rupture of Bruch's membrane ([4]; two weeks after laser): very little if any
